Measured values from patent publication US20020169326A1, “Esters and amides as PLA2 inhibitors” (FUJISAWA PHARMACEUTICAL COMPANY, LTD., priority 1995, published 2002).

molecular target: T1, human recombinant PLA2 group II enzyme (Homo sapiens, UniProt P14555); test: Test on the inhibitory effect against phospholipase A2 (PLA2), fluorescent phospholipid substrate; assay type: biochemical; conditions: dose 1 × 10^−6 M; 10-pyrene PA-monomethyl ester substrate, room temperature, 10 minutes; read-out: Percent inhibition: inhibition (%)
T1 sequence (P14555 21-144): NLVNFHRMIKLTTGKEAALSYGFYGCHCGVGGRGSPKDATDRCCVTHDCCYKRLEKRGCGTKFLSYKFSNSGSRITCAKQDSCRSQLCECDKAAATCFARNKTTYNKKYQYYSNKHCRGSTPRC
Description: Test on the inhibitory effect against phospholipase A2 (PLA2)
PLA2 activity was assayed with a fluorescent phospholipid analogue [1-palmitoyl-2-(10-pyrenyldecanoyl)-sn-glycero-3-monomethylphosphatidic acid(10-pyrene PA-monomethyl ester)] as a substrate, according to Radvanyi et al. (1989) with several modifications. Briefly, the reaction medium was prepared by sequential addition of 1160 μl of 50 mM Tris-HCl (pH 7.4) buffer containing 100 mM NaCl and 1 mM EDTA, 10 μl of 120 μM 10-pyrene PA-monomethyl ester in ethanol, 10 μl of drug sample in methanol and 10 μl of 1.2 μg/ml human recombinant PLA2 group II enzyme. The enzymatic reaction was then initiated with 10 μl of 0.84 M CaCl2. Following incubation at room temperature for 10 minutes, the reaction was terminated by addition of 25 μl of 1 M EDTA and 10 μl of 10 mg/ml β-cyclodextrin. Fluorescence measurements were carried out with a JASCO Corporation FP-777 spectrofluorometer. Excitation and emission wavelengths were 345 nm and 380 nm, respectively. All data are the average of at least duplicate determinations corrected for the spontaneous fluorescence of the reaction medium. Data were expressed as percent inhibition.
F. Radvanyi, L. Jordan, F. Russo-Marie and C. Bon: A sensitive and continuous fluorometric assay for phospholipase A2 using pyrene-labeled phospholipids in the presence of serum albumin. […]

Row | inhibition at 1 µM [%] | Structure (SMILES)
1 | 100 | NC(=O)C[C@H](Cc1ccc2ccccc2c1)OC(=O)[C@H](CCCC(=O)O)NC(=O)c1cc2ccccc2cc1Cc1ccccc1 [Example 24, (3S)-3-[(2S)-2-(3-Benzylnaphthalen-2-ylcarbonylamino)-5-carboxypentanoyl]oxy-4-(2-naphthyl)butanamide]

test system: not given; test: not given; conditions: not given

Row | Structure (SMILES) | melting point [°C]
2 | CCCCN(C(=O)[C@H](CCCC(=O)O)NC(=O)c1cn(Cc2ccccc2Cl)c2ccccc12)[C@H](CC(N)=O)Cc1ccc2ccccc2c1 | 104 to 110
3 | CCCCCCCCCCCCC[C@@H](CC(N)=O)N(CCC)C(=O)[C@H](CCCC(=O)O)NC(=O)c1ccc2ccccc2n1.Cl | 59 to 62
4 | CCCCN(C(=O)[C@H](CCCC(=O)O)NC(=O)c1cn(Cc2ccccc2Cl)c2ccccc12)[C@H](CC(N)=O)Cc1ccc2cc(CC)ccc2c1 | 100 to 116
5 | CCCN(C(=O)[C@H](CCCC(=O)O)NC(=O)c1cn(Cc2ccccc2)c2ccccc12)[C@H](CC(N)=O)Cc1ccc2ccccc2c1 | 91 to 94
6 | CCCN(C(=O)[C@H](CCCC(=O)O)NC(=O)c1cn(Cc2ccccc2)c2ccccc12)[C@H](CC(N)=O)Cc1ccc2cc(CC)ccc2c1 | 105 to 116
7 | Cc1ccc(Cn2c(C(=O)N[C@@H](CCCC(=O)O)C(=O)O[C@H](CC(N)=O)Cc3ccc4ccccc4c3)cc3ccccc32)cc1 [Example 165, (3S)-3-[(2S)-5-Carboxy-2-[{1-(4-methylbenzyl)indol-2-ylcarbonyl}amino]pentanoyl]oxy-4-(2-naphthyl)butanamide] | 86 to 90
8 | CCCN(C(=O)[C@H](CCCC(=O)O)NC(=O)c1cn(Cc2ccccc2)c2ccccc12)[C@H](CC(N)=O)Cc1ccc(C)cc1 | 83 to 92
9 | CCCCCCCCCCCCC[C@@H](CC(N)=O)N(CC(C)C)C(=O)[C@H](CCCC(=O)O)NC(=O)c1ccc2ccccc2n1 [Example 149, (3S)-3-[N-Isobutyl-{(2S)-5-carboxy-2-(2-quinolylcarbonylamino)pentanoyl}amino]hexadecanamide] | 65 to 66
10 | CCCCN(C(=O)[C@H](CCCC(=O)O)NC(=O)c1cn(Cc2ccccc2)c2ccccc12)[C@H](CC(N)=O)Cc1ccc2ccccc2c1 | 90 to 96
11 | CCCCCCCCC[C@@H](CC(N)=O)N(CCCCC)C(=O)[C@H](CCCC(=O)O)NC(=O)c1cn(Cc2ccccc2)c2ccccc12 | 125 to 127
12 | CCN(C(=O)[C@H](CCCC(=O)O)NC(=O)c1cn(Cc2cccc3ccccc23)c2ccccc12)[C@H](CC(N)=O)Cc1ccc2ccccc2c1 | 118 to 126
13 | CCCN(C(=O)[C@H](CCCC(=O)O)NC(=O)c1cn(Cc2ccccn2)c2ccccc12)[C@H](CC(N)=O)Cc1ccc2cc(CC)ccc2c1 | 110 to 116
14 | CCCCN(C(=O)[C@H](CCCC(=O)O)NC(=O)c1cn(Cc2ccccc2)c2ccccc12)[C@H](CC(N)=O)Cc1ccc2cc(CC)ccc2c1 | 100 to 116
15 | CN(CCC(N)=O)C(=O)[C@H](CCCC(=O)O)NC(=O)c1cc2ccccc2cc1Cc1ccccc1 [Example 180, 3-[N-Methyl-{(2S)-2-(3-benzylnaphthalen-2-ylcarbonyl)amino-5-carboxypentanoyl}amino]propanamide] | 147 to 157
16 | CCCCCCCc1ccc(C[C@@H](CC(N)=O)N(CCCC)C(=O)[C@H](CCCC(=O)O)NC(=O)c2cn(Cc3ccccc3Cl)c3ccccc23)cc1 | 79 to 81
17 | CCCCc1ccc(C[C@@H](CC(N)=O)N(CCCC)C(=O)[C@H](CCCC(=O)O)NC(=O)c2cn(Cc3ccccc3Cl)c3ccccc23)cc1 | 166 to 168
18 | CC(C)(C)OC(=O)N[C@@H](CCCC(=O)OCc1ccccc1)C(=O)O[C@H](CC(N)=O)Cc1ccc(-c2ccccc2)cc1 [Example 40, (3S)-3-[(2S)-5-Benzyloxycarbonyl-2-(tert-butoxycarbonylamino)pentanoyl]oxy-4-(4-biphenylyl)butanamide] | 94 to 98
19 | CCCN(C(=O)[C@H](CCC(=O)O)NC(=O)c1cn(Cc2ccccc2Cl)c2ccccc12)[C@H](CC(N)=O)Cc1ccc2ccccc2c1 | 85 to 92
20 | CCN(C(=O)[C@H](CCCC(=O)O)NC(=O)c1cn(Cc2ccccc2Cl)c2ccccc12)[C@H](CC(N)=O)Cc1ccc2ccccc2c1 | 110 to 114
21 | CCCCCCCCCCCCC[C@@H](CC(N)=O)N(Cc1ccccn1)C(=O)[C@H](CCCC(=O)O)NC(=O)c1ccc2ccccc2n1.Cl.Cl | 74 to 81
22 | CCCCCN(C(=O)[C@H](CCCC(=O)O)NC(=O)c1cn(Cc2ccccc2)c2ccccc12)[C@H](CC(N)=O)Cc1ccc2ccccc2c1 | 89 to 93
23 | CCN(C(=O)[C@H](CCCC(=O)O)NC(=O)c1cn(Cc2ccccc2)c2ccccc12)[C@H](CC(N)=O)Cc1ccc2ccccc2c1 | 110 to 112
24 | CCCCc1ccc(C[C@@H](CC(N)=O)N(CCCC)C(=O)[C@H](CCCC(=O)O)NC(=O)c2cn(Cc3ccccc3)c3ccccc23)cc1 | 77 to 82

The remaining lines, values ahead:

Row | melting point [°C] | Structure (SMILES)
25 | 147 to 157 | CCCCCC[C@@H](CC(N)=O)N(CCC)C(=O)[C@H](CCCC(=O)O)NC(=O)c1cn(Cc2ccccc2)c2ccccc12
26 | 175 to 180 | CCCCCC[C@@H](CC(N)=O)N(CCC)C(=O)[C@H](CCCC(=O)O)NC(=O)c1cn(Cc2ccccc2Cl)c2ccccc12
27 | 139 to 141 | CCCCCC[C@@H](CC(N)=O)N(CCC)C(=O)[C@H](CCCC(=O)O)NC(=O)c1cn(Cc2cccc3ccccc23)c2ccccc12
28 | 155 to 160 | CCCCCCCCC[C@@H](CC(N)=O)N(CCC)C(=O)[C@H](CCCC(=O)O)NC(=O)c1cn(Cc2ccccc2)c2ccccc12
29 | 124 to 127 | CCCCCC[C@@H](CC(N)=O)N(CCCC)C(=O)[C@H](CCCC(=O)O)NC(=O)c1cn(Cc2ccccc2)c2ccccc12
30 | 79 to 96 | CCCN(C(=O)[C@H](CCCC(=O)O)NC(=O)c1cn(Cc2ccccc2Cl)c2ccccc12)[C@H](CC(N)=O)Cc1ccc(C)cc1
31 | 82 to 88 | CCCCc1ccc(C[C@@H](CC(N)=O)N(CCC)C(=O)[C@H](CCCC(=O)O)NC(=O)c2cn(Cc3ccccc3)c3ccccc23)cc1
32 | 106 to 109 | CCCCCC[C@@H](CC(N)=O)N(CCC)C(=O)[C@H](CCCC(=O)O)NC(=O)c1cn(Cc2cccc(Cl)c2)c2ccccc12
33 | 112 to 116 | CCCCCN(C(=O)[C@H](CCCC(=O)O)NC(=O)c1cn(Cc2cccc3ccccc23)c2ccccc12)[C@H](CC(N)=O)Cc1ccc2ccccc2c1
34 | 78 to 95 | CCCCCC[C@@H](CC(N)=O)N(CCC)C(=O)[C@H](CCCC(=O)O)NC(=O)c1cn(Cc2ccccn2)c2ccccc12
35 | 80 to 85 | CCCCCC[C@@H](CC(N)=O)N(CC)C(=O)[C@H](CCCC(=O)O)NC(=O)c1cn(Cc2ccccc2)c2ccccc12
36 | 180 to 183 | CCCCCC[C@@H](CC(N)=O)N(CC)C(=O)[C@H](CCCC(=O)O)NC(=O)c1cn(Cc2ccccc2Cl)c2ccccc12
37 | 105 to 113 | CCCC[C@@H](CC(N)=O)N(CCCC)C(=O)[C@H](CCCC(=O)O)NC(=O)c1cn(Cc2cccc3ccccc23)c2ccccc12
38 | 145 to 150 | CCCCCCCCC[C@@H](CC(N)=O)N(CCC)C(=O)[C@H](CCCC(=O)O)NC(=O)c1cn(Cc2ccccc2Cl)c2ccccc12
39 | 105 to 110 | CCCC[C@@H](CC(N)=O)N(CCCC)C(=O)[C@H](CCCC(=O)O)NC(=O)c1cn(Cc2ccccc2Cl)c2ccccc12
40 | 98 to 116 | CCCC[C@@H](CC(N)=O)N(CCC)C(=O)[C@H](CCCC(=O)O)NC(=O)c1cn(Cc2cccc3ccccc23)c2ccccc12
41 | 127 to 129 | CCCCCC[C@@H](CC(N)=O)N(CCCCC)C(=O)[C@H](CCCC(=O)O)NC(=O)c1cn(Cc2ccccc2)c2ccccc12
42 | 95 to 98 | CCCC[C@@H](CC(N)=O)N(CCC)C(=O)[C@H](CCCC(=O)O)NC(=O)c1cn(Cc2ccccc2Cl)c2ccccc12
43 | 83 to 87 | CCCCc1ccc(C[C@@H](CC(N)=O)N(CCC)C(=O)[C@H](CCCC(=O)O)NC(=O)c2cn(Cc3ccccc3Cl)c3ccccc23)cc1
44 | 153 to 156 | CCCCCC[C@@H](CC(N)=O)N(CCCC)C(=O)[C@H](CCCC(=O)O)NC(=O)c1cn(Cc2ccccc2Cl)c2ccccc12
45 | 123 to 126 | CCCN(C(=O)[C@H](CCCC(=O)O)NC(=O)c1cn(Cc2cccc3ccccc23)c2ccccc12)[C@H](CC(N)=O)Cc1ccc2ccccc2c1
